Data from ChEMBL document CHEMBL5604063, “ASAP - DENV-2 NS2B-NS3 protease fluorescence dose response” (2024).
Several values for one entry are separate records, joined by “and”; a condition that tells them apart may be missing. Equal values may be shown once.

What was measured:
[1] = molecular target: T1, Genome polyprotein (dengue virus type 2, UniProt P29990); assay type: functional, Thailand/16681/1984
[2] = molecular target: T1, Genome polyprotein; assay type: functional, Thailand/16681/1984; remark: listed apart in the source

T1 sequence (P29990 1346-1475 limits assumed): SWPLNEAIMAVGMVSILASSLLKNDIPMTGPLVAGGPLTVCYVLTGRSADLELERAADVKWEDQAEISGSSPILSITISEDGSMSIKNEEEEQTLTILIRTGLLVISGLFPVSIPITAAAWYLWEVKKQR
T1 sequence (P29990 1476-2093 limits assumed): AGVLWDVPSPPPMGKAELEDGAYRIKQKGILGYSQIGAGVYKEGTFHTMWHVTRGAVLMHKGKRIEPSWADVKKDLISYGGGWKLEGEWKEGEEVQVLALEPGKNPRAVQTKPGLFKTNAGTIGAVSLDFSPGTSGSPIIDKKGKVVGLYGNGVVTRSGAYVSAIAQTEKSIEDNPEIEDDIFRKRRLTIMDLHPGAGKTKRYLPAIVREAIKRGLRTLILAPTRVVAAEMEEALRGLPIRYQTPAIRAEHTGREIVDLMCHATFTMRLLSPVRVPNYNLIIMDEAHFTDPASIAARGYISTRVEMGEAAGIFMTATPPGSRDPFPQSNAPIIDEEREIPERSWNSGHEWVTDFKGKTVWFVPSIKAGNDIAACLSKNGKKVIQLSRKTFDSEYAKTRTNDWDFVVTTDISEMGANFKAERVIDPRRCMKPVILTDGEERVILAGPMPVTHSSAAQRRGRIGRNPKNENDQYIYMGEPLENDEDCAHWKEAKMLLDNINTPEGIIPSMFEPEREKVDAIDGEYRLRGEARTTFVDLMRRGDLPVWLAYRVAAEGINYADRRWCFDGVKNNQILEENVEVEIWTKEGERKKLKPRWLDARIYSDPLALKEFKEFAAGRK

SMILES: N#C[C@H](Nc1ccc(CC(=O)O)cn1)c1cc(Cl)cc(C2CC2)c1
- IC50 [1]: > 99.5 µM
- IC50 [2]: > 100 µM

SMILES: COCCN(C)C(=O)[C@H](Nc1ccc2c(c1)CNC2)c1cc(Cl)cc(C2CC2)c1
- IC50 [1]: > 99.5 µM
- IC50 [2]: > 100 µM

SMILES: NCc1ccc(NC(=O)c2cc(Cl)cc3[nH]ncc23)cc1
- IC50 [1]: > 99.5 µM
- IC50 [2]: > 100 µM

SMILES: C[C@H]1CNC[C@@H]1c1ccc(NC(=O)c2cc(Cl)cc(NC(=O)OCc3ccccc3)c2)cc1
- IC50 [1]: 22.4 µM
- IC50 [2]: 96.6 µM

SMILES: CC[C@H](Cc1nnn[nH]1)c1ccc(NC(=O)c2cc(Cl)cc3[nH]ncc23)cc1
- IC50 [1]: > 99.5 µM
- IC50 [2]: > 100 µM

SMILES: c1nc(C2CCN(Cc3cc(C4CCOCC4)[nH]n3)CC2)cs1
- IC50 [1]: > 99.5 µM
- IC50 [2]: > 100 µM

SMILES: COC(=O)c1cc(Cl)cc([C@@H]2CN(Cc3ccccc3)C[C@H]2c2cccc(CN)c2)c1
- IC50 [1]: > 99.5 µM
- IC50 [2]: > 100 µM

SMILES: O=C(Nc1cc([C@H]2CCOC2)ccn1)c1ccc2ncsc2c1
- IC50 [1]: > 99.5 µM
- IC50 [2]: > 100 µM

SMILES: Cc1ccc(C(=O)Nc2ccc3c(c2)CNC3)c2[nH]ncc12
- IC50 [1]: > 99.5 µM
- IC50 [2]: > 100 µM

SMILES: N#Cc1ccc(-c2nc3c(C(=O)Nc4ccc5c(c4)CNC5)cc(F)cc3[nH]2)cc1
- IC50 [1]: 2.9 µM and 2.52 µM
- IC50 [2]: 11.3 µM and 10.2 µM

SMILES: CNc1ncc(C(F)(F)F)cc1-c1ccc2[nH]c(C(=O)O)cc2c1
- IC50 [1]: > 99.5 µM
- IC50 [2]: > 100 µM

SMILES: COc1c(Cl)cc(Cl)cc1C(=O)Nc1cccc(CN)c1
- IC50 [1]: > 99.5 µM
- IC50 [2]: > 100 µM

SMILES: NCc1cccc(NC(=O)c2cc(Cl)cc(Cl)c2O)c1
- IC50 [1]: > 99.5 µM
- IC50 [2]: > 100 µM

SMILES: NCCc1ccc([C@H]2C[C@@H]2c2cc(Cl)cc(NC(=O)OCc3ccccc3)c2)cc1
- IC50 [1]: 7.22 µM and 8.69 µM
- IC50 [2]: 58.9 µM and 31.6 µM

SMILES: Cc1nc2c(C(=O)Nc3ccc4c(c3)CNC4)cccc2[nH]1
- IC50 [1]: > 99.5 µM
- IC50 [2]: > 100 µM

SMILES: Cc1cc(CN)cc(C)c1NS(=O)(=O)c1ccc(Oc2ccccc2Cl)cc1
- IC50 [1]: > 99.5 µM
- IC50 [2]: > 100 µM

SMILES: O=C(Nc1ccc2c(c1)CNC2)c1ncc(Cc2ccccc2)s1
- IC50 [1]: > 99.5 µM
- IC50 [2]: > 100 µM

SMILES: O=C(Nc1ccc2c(c1)CNC2)c1ccc(OCC(F)(F)F)nc1
- IC50 [1]: > 99.5 µM
- IC50 [2]: > 100 µM

SMILES: O=C(Nc1ccc2c[nH]nc2c1)c1cc(Cl)cc2[nH]ncc12
- IC50 [1]: > 99.5 µM
- IC50 [2]: > 100 µM

SMILES: CNC(=O)[C@H](Nc1cc(CN)cc(-c2nn[nH]n2)c1)c1cc(Cl)cc(C2CC2)c1
- IC50 [1]: > 99.5 µM
- IC50 [2]: > 100 µM

SMILES: CNC(=O)[C@]1(Nc2ccc3c(c2)CNC3)CCc2ccc(Cl)cc21
- IC50 [1]: > 99.5 µM
- IC50 [2]: > 100 µM

SMILES: CCn1c(=O)c(N2CC[C@H](CO)C2)nc2cc(C(=O)N(C)C)ccc21
- IC50 [1]: > 99.5 µM
- IC50 [2]: > 100 µM

SMILES: O=C(Nc1ccc2c(c1)CNC2)c1cc(F)cc(-c2ccnn2CC2CC2)c1
- IC50 [1]: > 99.5 µM
- IC50 [2]: > 100 µM

SMILES: CCOC(=O)c1[nH]c(C)c(C(=O)Nc2cccc(CN)c2)c1CC
- IC50 [1]: > 99.5 µM
- IC50 [2]: > 100 µM

SMILES: CC(C)c1nn(-c2ccccc2)cc1C(=O)Nc1cccc(CN)c1
- IC50 [1]: > 99.5 µM
- IC50 [2]: > 100 µM

SMILES: N#Cc1cccc(-c2nc3c(C(=O)Nc4ccc5c(c4)CNC5)cc(Cl)cc3[nH]2)c1
- IC50 [1]: 1.76 µM and 2.66 µM
- IC50 [2]: 17.3 µM and 12.2 µM

SMILES: O=C1Cc2c(cccc2C(=O)N[C@H]2CCc3cnccc32)N1
- IC50 [1]: > 99.5 µM
- IC50 [2]: > 100 µM

SMILES: N#Cc1cccc(N2CCN(Cc3c[nH]c4ccccc34)CC2)c1
- IC50 [1]: > 99.5 µM
- IC50 [2]: > 100 µM

SMILES: O=C(Nc1cc(Cl)cc(C(=O)Nc2ccnc(C(=O)O)c2)c1)OCc1ccccc1
- IC50 [1]: 66.9 µM
- IC50 [2]: > 100 µM

SMILES: COc1nnc(C(F)(F)F)cc1-c1ccc2[nH]c(C(=O)O)cc2c1
- IC50 [1]: > 99.5 µM
- IC50 [2]: > 100 µM

SMILES: O=C(Nc1ccc2c(c1)CNC2)c1ccc2c(c1)CCC2
- IC50 [1]: > 99.5 µM
- IC50 [2]: > 100 µM

SMILES: O=C(Nc1cc(-c2cccnc2)ccn1)c1csc(C2CC2)n1
- IC50 [1]: > 99.5 µM
- IC50 [2]: > 100 µM

SMILES: Cn1nc([C@@H]2CCCN2)nc1NC(=O)c1cc(Cl)cc(NC(=O)OCc2ccccc2)c1
- IC50 [1]: > 99.5 µM
- IC50 [2]: > 100 µM

SMILES: NCc1cccc(NC(=O)c2cc(C3CCCCC3)nc3ccc(F)cc23)c1
- IC50 [1]: > 99.5 µM
- IC50 [2]: > 100 µM

SMILES: Cc1cc(C(=O)Nc2ccc3c(c2)CNC3)c2cnn(C)c2n1
- IC50 [1]: > 99.5 µM
- IC50 [2]: > 100 µM

SMILES: NCCCc1ccnc(NC(=O)c2nnc(C3CC3)s2)c1
- IC50 [1]: > 99.5 µM
- IC50 [2]: > 100 µM

SMILES: O=C(O)C[C@H]1NCc2cc(NC(=O)c3cc(Cl)cc4[nH]ncc34)ccc21
- IC50 [1]: > 99.5 µM
- IC50 [2]: > 100 µM

SMILES: CCc1onc(C2CCOCC2)c1C(=O)Nc1cccc(CN)c1
- IC50 [1]: > 99.5 µM
- IC50 [2]: > 100 µM

SMILES: CNC(=O)[C@]1(Nc2ccc3c(c2)CNC3)CCc2ccccc21
- IC50 [1]: > 99.5 µM
- IC50 [2]: > 100 µM

SMILES: CN(C)Cc1cc(Cl)cc(C(=O)Nc2cccc(CN)c2)c1
- IC50 [1]: > 99.5 µM
- IC50 [2]: > 100 µM

SMILES: O=C(Nc1cc(Cl)cc(C(=O)NC2([C@H]3CCNC3)CC2)c1)OCc1ccccc1
- IC50 [1]: > 99.5 µM
- IC50 [2]: > 100 µM

SMILES: COCCN1C(=O)C[C@H](C(=O)Nc2cccc(CN)c2)[C@H]1c1ccc(Cl)c(F)c1
- IC50 [1]: > 99.5 µM
- IC50 [2]: > 100 µM

SMILES: O=C(Nc1cc(Cl)cc(C(=O)Nc2ccc([C@@H]3C[C@H]3C(=O)O)cc2)c1)OCc1ccccc1
- IC50 [1]: 19.5 µM
- IC50 [2]: 9.55 µM and 9.43 µM

SMILES: NCc1cccc(NC(=O)C[C@H](CC(N)=O)c2ccc(F)cc2)c1
- IC50 [1]: > 99.5 µM
- IC50 [2]: > 100 µM

SMILES: Cc1[nH]c2ccc(Br)cc2c1CC(=O)Nc1cccc(CN)c1
- IC50 [1]: > 99.5 µM
- IC50 [2]: > 100 µM

SMILES: C=CC[C@H](Nc1cccc(CN)n1)c1cc(Cl)cc(NC(=O)OCc2ccccc2)c1
- IC50 [1]: > 99.5 µM
- IC50 [2]: > 100 µM

SMILES: O=C(O)c1ccc(-c2cc(NC(=O)c3cc(F)cc4[nH]ncc34)cc3c2CNC3)cc1
- IC50 [1]: 75.4 µM
- IC50 [2]: 54.7 µM and 75 µM

SMILES: Cc1c(C(=O)Nc2cc3c(cn2)OCC3)cc(C2CC2)n1C
- IC50 [1]: > 99.5 µM
- IC50 [2]: > 100 µM

SMILES: O=C(Nc1cccc(-c2nnn[nH]2)c1)c1cc(Cl)cc(C2CC2)c1
- IC50 [1]: 82.9 µM
- IC50 [2]: 39.7 µM and 43.5 µM

SMILES: c1cncc(CN2CC[C@H](NCc3c[nH]c4ccccc34)C2)c1
- IC50 [1]: > 99.5 µM
- IC50 [2]: > 100 µM

SMILES: CC(=O)N1Cc2ccc(NC(=O)c3cc(Cl)cc4[nH]ncc34)cc2C1
- IC50 [1]: > 99.5 µM
- IC50 [2]: > 100 µM

SMILES: O=C1COc2c(cccc2N2CCN(Cc3c[nH]c4ccccc34)CC2)N1
- IC50 [1]: > 99.5 µM
- IC50 [2]: > 100 µM

SMILES: NCc1cccc(NC(=O)c2cc(Br)cc(-n3cnnn3)c2)c1
- IC50 [1]: > 99.5 µM
- IC50 [2]: > 100 µM

SMILES: N#Cc1ccc(CN)cc1NC(=O)c1cc(Cl)cc(NC(=O)OCc2ccccc2)c1
- IC50 [1]: > 99.5 µM
- IC50 [2]: > 100 µM

SMILES: NCc1cccc(NC(=O)c2c(C(F)(F)F)nc3n2CCCC3)c1
- IC50 [1]: > 99.5 µM
- IC50 [2]: > 100 µM

SMILES: O=C(Nc1ccc2c(c1)CNC2)c1cc(Cl)cc2[nH]c(-c3nc4c(s3)CCC4)nc12
- IC50 [1]: 16.4 µM
- IC50 [2]: > 100 µM

SMILES: NCc1cccc(NC(=O)c2cc(N)cc(Cl)c2)c1
- IC50 [1]: > 99.5 µM
- IC50 [2]: > 100 µM

SMILES: NCc1cccc(NC(=O)[C@H](NC(=O)OCc2ccccc2)c2cccc(OCc3ccncc3)c2)c1
- IC50 [1]: > 99.5 µM
- IC50 [2]: > 100 µM

SMILES: N#C[C@H](Nc1ccc2c(c1)CNC2)c1cncc2ccccc12
- IC50 [1]: > 99.5 µM
- IC50 [2]: > 100 µM

SMILES: CCOCC1(c2nc3c(C(=O)Nc4ccc5c(c4)CNC5)cc(F)cc3[nH]2)CC1
- IC50 [1]: > 99.5 µM
- IC50 [2]: > 100 µM

SMILES: O=C(Nc1cc(Cl)cc(C(=O)Nc2cc(Br)cc(-c3nnn[nH]3)c2)c1)OCc1ccccc1
- IC50 [1]: 5.85 µM
- IC50 [2]: 4.76 µM and 6.21 µM

SMILES: O=C(Nc1cc(Cl)cc(C(=O)Nc2ccc([C@H]3CNCCO3)cc2)c1)OCc1ccccc1
- IC50 [1]: > 99.5 µM
- IC50 [2]: > 100 µM

SMILES: CS(=O)(=O)c1cc(CN)cc([C@@H]2C[C@H]2c2cc(Cl)cc(NC(=O)OCc3ccccc3)c2)c1
- IC50 [1]: > 99.5 µM
- IC50 [2]: > 100 µM

SMILES: C[C@H]1C[C@@H](C(=O)Nc2cccc(CN)c2)CCO1
- IC50 [1]: > 99.5 µM
- IC50 [2]: > 100 µM

SMILES: NCc1cc(C(F)(F)F)cc(-c2ccc3[nH]c(C(=O)O)cc3c2)n1
- IC50 [1]: > 99.5 µM
- IC50 [2]: > 100 µM

SMILES: Cc1cc(NC(=O)c2cc(Cl)cc3[nH]ncc23)ccc1N1CCNCC1
- IC50 [1]: 83.5 µM
- IC50 [2]: > 100 µM

SMILES: CC(C)NC(=O)[C@H](Nc1ccc2c(c1)CNC2)c1cc(Cl)cc2[nH]ncc12
- IC50 [1]: 64 µM and 37.2 µM and 98.4 µM
- IC50 [2]: 96.5 µM and 41.2 µM and > 100 µM and 26.4 µM

SMILES: NCc1cccc(NC(=O)c2nc(C3CC3)n(-c3ccccc3Cl)n2)c1
- IC50 [1]: > 99.5 µM
- IC50 [2]: > 100 µM

SMILES: CC1(C)NCc2cc(NC(=O)c3cc(F)cc4[nH]ncc34)ccc21
- IC50 [1]: > 99.5 µM
- IC50 [2]: > 100 µM
